We go through 91 compounds from a melting point compilation (Tetko et al.; mined from patent text by program, amines drawn as free bases though some values may be those of a salt).

For `Cc1cc(C)c2c(c1)cc(C(=O)OCc1ccccc1)n2CC(=O)OC(C)(C)C`, the melting point was found to be 115 °C.

In turn, `CCC1Cc2c(C)c(OCC(=O)O)c(C)c(C)c2C1=O` (stereo unspecified) yielded a melting point of 136 to 137 °C.

The compound `CCC1CC(=O)Nc2c1cnn2CC` (stereo unspecified) returned a melting point of 203 to 204 °C.

`O=[N+]([O-])c1cc(Cl)c(CCl)c(Cl)c1` displayed a melting point of 37 to 39 °C.

Turning to `CNc1cc(OC)cc(NCCOC)c1[N+](=O)[O-]`, the melting point turned out to be 84 °C.

In the case of `Nc1ccc(C(=O)N2Cc3ccccc3CC3=C2C=CC(Cl)C3)cc1` (stereo unspecified), the melting point was 211 to 214 °C.

Regarding `CCNc1nc(SC)ncc1CO`, the melting point lay within 152 to 156 °C.

`COc1ccc(-c2cc3c(Br)c(OC)ccc3o2)cc1`: the melting point was in the range of 115 to 117 °C.

The compound `Fc1ccccc1NC(=S)NCc1ccncc1` gave a melting point of 145 °C.

Regarding `CCCn1nnn(-c2cc(OC(C)C)c(F)cc2F)c1=O`, the melting point lay within 76.5 to 77 °C.

`N#Cc1nc(O)c(-c2cc(O)c(O)c([N+](=O)[O-])c2)nc1C#N` returned a melting point of more than 300 °C.

Compound `CCCCCS(=O)(=O)NC(=O)CCc1ccc(OCCOC)cc1OCc1ccc(Cl)cc1Cl` came in with a melting point of 107 to 108 °C.

Compound `COc1ccc(-c2c(Br)c(CN3C(=O)CCC3=O)nc3sc4c(c23)CCNC4)cc1` returned a melting point of 219 to 221 °C.

For `Cc1c(NC(=O)c2ccc(-c3ccccc3F)c(F)c2)ccc2cc(CN3CCCC3)cnc12`, the melting point is 139 to 140 °C.

Take `CC(=O)OCC1CCCn2c(cc3ccccc32)C1` (stereo unspecified): the melting point worked out at 65 °C.

`CNS(=O)(=O)CC(=O)c1cc(OC)c(OC)c(OC)c1N`: the melting point was in the range of 125 to 127 °C.

For `COC(=O)c1nc2cccc(C)c2c(O)c1C(=O)OC`, the melting point was in the range of 167 to 168 °C.

In the case of `CC[Si](C#Cc1c2cc3ccccc3cc2c(C#C[Si](CC)(CC)CC)c2cc3ccccc3cc12)(CC)CC`, the melting point stood at 210 °C.

Compound `BrCc1c(Br)csc1Br` came in with a melting point of 89 to 90 °C.

In the case of `Oc1ccc(C2CCOC2(c2ccccc2)c2ccc(O)cc2)cc1` (stereo unspecified), the melting point lay within 194 to 196 °C.

`Cc1ccc2cc(NS(=O)(=O)c3cc(Cl)ccc3Cl)ccc2n1`: the melting point is 125 °C.

`CN1CCC2(CC1)OCc1ccccc12` gave a melting point of 76 to 77 °C.

As to `COc1ccc(C2CC(c3ccccc3OC)=NN2c2ccc(C(=O)O)cc2)cc1` (stereo unspecified), the melting point turned out to be 243 °C.

Consider `O=C(NCCc1ccccc1)C1=C(C(=O)Nc2cc(OC3CCCC3)c(Cl)cc2F)CCCC1`, for which the melting point lay within 165 to 166 °C.

For `O=[N+]([O-])c1cc(O)c(Br)cc1F`, the melting point fell in the range of 124 to 126 °C.

In the case of `CC12CCC3c4ccc(O)cc4CCC3(C)C1CCC2O` (stereo unspecified), the melting point lay in the range of 168 to 170 °C.

With `CCCCCCCCCCCCCCCCCCNC(=O)OCC(CN(C(C)=O)S(=O)(=O)CCCCl)NC(C)=O` (stereo unspecified), the melting point lay within 116 to 117 °C.

As for `c1cncc(-n2cnnn2)c1`, the melting point was 74 to 76 °C.

`Cn1cc(CO)c(=O)c2ccc(Br)cc21`: the melting point is more than 300 °C.

In the case of `CCCCCCCCCCCC(=O)OCC(COCc1ccccc1)OC(=O)CCCCCCCCCCC` (stereo unspecified), the melting point was in the range of 30 to 31 °C.

`CCCCCCCCCCCCCCCCC(C)c1cccc2c1OC(=O)C2c1ccccc1` (stereo unspecified) yielded a melting point of 60 to 62 °C.

`Cn1c(SC(C(N)=O)c2ccccc2)nc2ccccc21` (stereo unspecified) returned a melting point of 185 to 187 °C.

In turn, `O=[N+]([O-])c1cc(Br)cc2c1[nH]c1ccc(Br)cc12` registered a melting point of 252 to 256 °C.

In turn, `COC(=O)c1nc(-c2ccc(Cl)cc2)c(Cl)c(N)c1OC` showed a melting point of 139 to 141 °C.

Compound `Cc1ccc(C2CCCN2S(=O)(=O)c2ccc(F)cc2)cc1` (racemic) displayed a melting point of 112 °C.

Regarding `CC(=O)OCCc1c(-c2ccccc2)nc(N)n2ncnc12`, the melting point was 181 to 182 °C.

The compound `CCOC(C)n1c(Cl)c(Cl)c(C#N)c1-c1ccc(Cl)c(Cl)c1` (stereo unspecified) returned a melting point of 124 to 126 °C.

Regarding `CCCCCCCCCCCCCCC(=O)C(=O)NC(C=CC(=O)OC)CCCC` (stereo unspecified), the melting point lay in the range of 48 to 50 °C.

In turn, `COC(=O)c1cccc(Cl)c1NC(=O)CC1c2ccccc2Oc2ccccc21` displayed a melting point of 178 to 179 °C.

Take `COc1ccc(S(=O)(=O)C2(C(=O)NO)CCN(C(C)C)CC2)cc1`: the melting point stood at 75 °C.

`CCCCCCCCCCCCCCCCCCCC(C)=O` yielded a melting point of 41 to 42 °C.

Compound `CC#CCCn1ncc2c(OCC)c(C(=O)OCC)c(C)nc21` had a melting point of 94 to 95 °C.

Regarding `CC1(C)Cc2c(c(N3CCCC3)nc3sc4c(NCCCN5CCCC5=O)ncnc4c23)CO1`, the melting point was found to be 217 °C.

In the case of `O=C(NC(=O)c1c(F)cccc1Cl)Nc1ccc(S(=O)(=O)C(F)(F)C(F)F)cc1F`, the melting point lay within 176 to 177 °C.

As for `COCc1nc2c3c(ccn2c1C)C(=O)[C@H](O)[C@@H](c1ccccc1)N3`, the melting point lay within 168 to 173 °C.

In turn, `Cc1ccc(N2CCOCC2)c(N=C2NCCN2CCO)c1` came in with a melting point of 135 to 136 °C.

With `Cc1ccc(C(=O)Nc2cccc(C(F)(F)F)c2)cc1Br`, the melting point fell in the range of 157 to 158 °C.

`Cc1cc2c(cc1[N+](=O)[O-])C(C)(C)CCC2(C)C` showed a melting point of 143 to 144 °C.

As to `NS(=O)(=O)c1cnc(NC(=O)c2cnn3c(C(F)(F)F)cc(-c4ccc(C(F)(F)F)cc4)nc23)s1`, the melting point came out at 309 °C.

Compound `COc1ccc(C2(C34CC5CC(CC(C5)C3)C4)N=C(N)N(C)C2=O)cc1` (stereo unspecified) had a melting point of 150 to 155 °C.

The compound `O=C(O)C(CC1CCCC1)c1ccc(S(=O)(=O)C2CCCC2)cc1` (stereo unspecified) registered a melting point of 165 to 167 °C.

On to `CCN(c1nc2ccccc2[nH]1)C1CCN(CCc2ccccc2)CC1`, for which the melting point worked out at 205 °C.

Regarding `CCC1C(=O)c2c(cc(OC)c(Cl)c2Cl)C1c1ccccc1` (stereo unspecified), the melting point lay within 114 to 116 °C.

As for `COc1cc2c(cc1Nc1ncc(Cl)c(Nc3ccccc3S(=O)(=O)N(C)C)n1)CCN(CCOC(=O)CN)CC2`, the melting point fell in the range of 77 to 79 °C.

In turn, `CCn1ncc(CC(=O)O)c1OCCCc1cn(-c2ccc(C(F)(F)F)cn2)nc1C(C)C` displayed a melting point of 120 to 121 °C.

Regarding `O=C(O)c1cc2c(cc1[N+](=O)[O-])OCO2`, the melting point lay in the range of 160 to 163 °C.

`CCOC(=O)C1=C(C)NN=C(c2ccco2)C1c1ccccc1` (stereo unspecified) registered a melting point of 158 °C.

Consider `CCOC(=O)CC(=O)NC(=O)N1CC1C#N` (stereo unspecified), for which the melting point fell in the range of 121 to 123 °C.

In turn, `OCC1=Cc2cc(Cl)ccc2Sc2sccc21` displayed a melting point of 117 to 120 °C.

Compound `COCCOc1cc(NC(=O)OC(C)(C)C)c(N)cc1C#Cc1ccccc1` registered a melting point of 105 to 107 °C.

With `COc1ccc(C(=O)CBr)c(F)c1`, the melting point fell in the range of 67 to 69 °C.

Compound `Cn1cc(-c2cc3cccnc3[nH]2)c2cc(OCCO)ccc21` yielded a melting point of 209 to 210 °C.

In turn, `CCOC(=O)C(=O)CC(=O)/C=C/c1ccc(Cl)c(OC)c1F` gave a melting point of 67.5 to 69 °C.

`CCCCCCCCCCCCCCCCCCCc1cccc(N)c1` registered a melting point of 50 to 51 °C.

In turn, `N#CC(C=N)CC(=O)c1ccccc1` (stereo unspecified) yielded a melting point of 89 to 90 °C.

With `CC(=O)Oc1ccc(-c2c3ccccc3c(Br)c3sc4ccccc4c23)cc1OC(C)=O`, the melting point lay in the range of 178 to 179 °C.

In the case of `O=C(c1cccc(Cl)c1)c1ccnc2ccccc12`, the melting point stood at 92.7 °C.

On to `CC1(C)CC(NC(=O)c2ccc(Cl)c([N+](=O)[O-])c2)CC(C)(C)N1`, for which the melting point lay within 166 to 168 °C.

The compound `CC(=O)Oc1ccc(-n2c(-c3ccccc3)cc3ccccc32)cc1C(=O)O` yielded a melting point of 178 to 180 °C.

`CC1(C)CN2C(N)=NC(c3ccc(OC(F)(F)F)cc3)(c3cccc(-c4cccnc4F)c3)C2=N1` (stereo unspecified) yielded a melting point of 89 to 97 °C.

`Nc1ncnc2c1c(-c1ccc(Oc3ccccc3)cc1)cn2S(=O)(=O)C1CCCC1` came in with a melting point of 188 °C.

Turning to `CC(=O)OCCn1cnc2c(Cl)nc(Nc3ccccc3)nc21`, the melting point was in the range of 193 to 194 °C.

On to `CN(C)CCC(=O)n1cc(-c2ccccc2)c2ccccc21`, for which the melting point fell in the range of 137 to 138 °C.

`Cc1cc(C(=O)c2ccccc2)ccc1NC(=O)C(C)(O)C(F)(F)F` (stereo unspecified): the melting point was 123 to 124 °C.

In turn, `CC(C)(C)NC(=S)Nc1cc(Br)cc(Br)c1` came in with a melting point of 172 to 174 °C.

With `O=C(NCc1nc(O)cc(O)n1)c1cccs1`, the melting point was 270 to 275 °C.

Turning to `Cc1cccc(-c2ccc3ccc(NC(=O)c4cccc(Br)c4)nc3n2)c1`, the melting point came out at 100 °C.

`CCc1c(-c2ccc(OCc3ccccc3)cc2)c2ccc3c(OC)ccc1n32` displayed a melting point of 78 to 81 °C.

With `Cc1ccccc1C(=O)CN1C(=O)C(NC(=O)Nc2cccc(C(=O)NO)c2)CN(C(=O)C(C)(C)C)c2ccccc21` (stereo unspecified), the melting point is 192 to 196 °C.

As for `O=C(O)c1ccoc1Cl`, the melting point is 138 to 141 °C.

For `CN[C@@H]1CCCC[C@H]1NC` (relative stereo), the melting point came to 17 °C.

As to `O=C(O)C(=O)c1ccc2c(c1)CCS2`, the melting point was 122 to 123 °C.

For the compound `Cc1nc2ccc(F)cc2n1C1CC2CC(=O)CC2C1` (stereo unspecified), the melting point was in the range of 199 to 200 °C.

`O=C1CCC(N2Cc3cc(CNC(=O)Nc4cccc(Oc5ccccc5)c4)ccc3C2=O)C(=O)N1` (stereo unspecified) showed a melting point of 224 to 226 °C.

`CCOC(=O)C(=O)Nc1cc2c3c(cccc3c1[N+](=O)[O-])C(=O)OC2=O` displayed a melting point of 221 to 222 °C.

`Cc1noc(NS(=O)(=O)c2ccccc2-c2ccc(-c3ncco3)cc2CCN(C)C(=O)Cc2ccccc2)c1C` had a melting point of 98 to 106 °C.

Regarding `Cc1oc(-c2ccc(-c3ccccc3)cc2)nc1CCOc1ccc(C[C@H](OCC(F)(F)F)C(=O)O)c2ccccc12`, the melting point fell in the range of 199 to 200 °C.

`N#Cc1nn(-c2c(Cl)cc(C(F)(F)F)cc2Cl)cc1C1CC(=O)C1(Cl)Cl` (stereo unspecified) yielded a melting point of 118 to 120 °C.

On to `Nc1n[nH]cc1-c1cccc(N2CCC(N3CCCC3)CC2)c1`, for which the melting point lay within 214 to 216 °C.

As for `CCOC(=O)C1(C(=O)Nc2ccc(Cl)cc2CC)CC1`, the melting point was in the range of 77 to 80 °C.

`CON(C)C(=O)c1cc(S(N)(=O)=O)sc1Cl`: the melting point lay in the range of 223 to 225 °C.
